Legend:
[1] = test system: primary neurons of the rat cerebellum; experiment: NMDA-mediated calcium influx into primary neurons after chronic IL-6 treatment; type: cell-based
Description: Cultures of primary neurons were obtained from the cerebella of rats 6 to 8 days old as described by B. Engelsen and R. Bjerkvig [in R. I. Freshney (Editor) Culture of Animal Cells, 2nd Edition, Alan R. Liss, Inc. New York 1987, 277-279]. After removal of the tissue, single cells were obtained using papain and were seeded out in a density of 200 00 cells per well in microtitre plates (96 wells) coated with poly-D-lysine. The cells were cultivated in a growth medium consisting of DMEM/F12, 10% heat-inactivated horse serum. 25 mM KCl, 30 mM glucose, 2 mM glutamine. In order to minimize the number of glial cells, 5-fluoro-2′-deoxyuridine (20 μg/ml) was added on the first and fourth day in culture. The cultures obtained in this way consisted of more than 95% neurons.
Human recombinant interluekin-6 (IL-6) was dissolved in physiological salt solution (Hank's balanced salt solution) and added to neuron cultures on days, 1, 4, 7 and 11 after the start of culturing (final) concentration 5 ng/ml). […]
12 days after the start of culturing, the N-methyl-D-asparate (NMDA)-induced changes in the intracellular calcium level were measured using a fluorescence plate reader (Ascent Fluoroscan). […] The cells were stimulated by adding NMDA (final concentration 200 μM) in the presence of glycine (final concentration 5 μM), and the fluroescence was measured at 15-second intervals over a period of one minute (excitation 485 nm. emission 530 nm). Intracellular calcium concentrations were calculated by the formula [Ca^2]i=Kd.
The arithmetic means was formed from the intracellular calcium concentrations found at all four times of measurement, and the percentage change from the unstimulated controls (basa) calcium concentration) was calculated.
Inhibition of the potentiation, induced chronic IL-6 administration, of the NMDA-mediated calcium influx into primary neurons of the rat cerebellum by galiella lactone. […] The average calcium concentration during the one-minute measurement period was calculated and expressed as a per cent of the basal intracellular calcium concentration. […]

[2] = test system: IL-6-induced and Stat3-mediated SEAP synthesis; experiment: Inhibition of IL-6- and Stat3-mediated SEAP reporter gene expression in HepG2 cells; type: cell-based; details: Homo sapiens; HepG2, induction with IL-6 10 ng/ml, 24 h; read-out: concentration for half-maximal SEAP synthesis inhibition (IC50)
Description: The following bioassay was carried out for fundamental exemplary experiments for detecting the inhibition of IL-6- and Stat3-mediated gene expression:
The initial vector used was the vector pTK/SEAP (Biochem. Biophys. Res. Commun., 1996, 226: 214-21) (see FIG. 1) which contains the gene of secreted alkaline phosphatase (SEAP) as reporter gene. This vector was linearized with the restriction enzyme Nhel and then dephosphorylated. The following oligonucleotides
which contain a binding site for Stat3 and Stat1 proteins (cf. Proc. Natl. Acad. Sci. USA, 1995, 92: 3041-5) were phosphorylated, ligated and precipitated with ethanol. […]
The HepG2 cells were cultivated in a moist atmosphere with 5% CO2 at 37° C. in 50 ml of DMEM (Gibco BRL, Life Technologies GmbH. Dieselstr, 5, 76344 Eggenstein) with 10% fetal calf serum, and penicillin/streptomycin (100 iu) in 600 ml cell culture bottles. […] The cell count was determined using a counting chamber and was adjusted to 6-8×10^6 cells/ml. […]
Cytotoxic effects of the compounds on the cells were investigated by microscopy after 24 h. Likewise after 24 h. the SEAP activity was determined using the Phospha-Light™ chemoluminescence assay (Perkins-Elmer Applied Biosystems, Langen) and, under the chosen conditions, is directly proportional to the SEAP concentration in the analysed sample. […]

Structure (SMILES): C[C@H]1C=C2C(=O)O[C@H]3CC[C@@H](C1)[C@@]23O [galiella lactone]
- IL-6-induced enhancement of the NMDA-mediated calcium influx ([1]; 1 μM before each IL-6 addition (5 ng/ml), NMDA 200 μM): completely prevented
- NMDA-induced increase in average intracellular calcium concentration ([1]; chronic administration 1 μM, NMDA 200 μM, without IL-6): somewhat reduced
- effect on the basal calcium level ([1]; chronic treatment, 1 μM, no NMDA): no effect
- IC50 [2]: 50 to 100 nM

Source: patent US6512007B1, “Use of galiella lactone” (Bayer Aktiengesellschaft, priority 2000, dated 2003)
